Experiments:
Format in all cases: cell-based
[1] = tested on: A549/ATCC
[2] = tested on: HOP-92
[3] = tested on: HCC -2998
[4] = tested on: SNB-19
[5] = tested on: U251
[6] = tested on: CNS Cancer
[7] = tested on: Melanoma
[8] = tested on: OVCAR-5
[9] = tested on: OVCAR-8
[10] = tested on: ACHN
[11] = tested on: UO-31
[12] = tested on: Renal Cancer
[13] = tested on: BT-549

COc1cc(NC2=NC(=O)C(=Cc3c[nH]c4ccccc34)S2)cc(OC)c1OC [Les-6418, 5-((1H-Indol-3-yl)methylene)-2-((3,4,5-trimethoxyphenyl)amino)thiazol-4(5H)-one] was tested. Which TGI ([1]; 48 h) did it give?
The TGI was 16.5 µM.

And the GI50 ([1]; Homo sapiens, 48 h)?
The GI50 was 2.84 µM.

And the LC50 ([1]; Homo sapiens, 48 h)?
Its LC50 is 73.6 µM.

What about the “SI (TGI)” value ([1]; MG_MID_60/value) of the same molecule?
The value was 1.13.

What about the Growth % ([2]; HOP-92, 10 μM, one dose, 48 h) of the same molecule?
The Growth % was −72.26%.

And the TGI ([2]; HOP-92, 48 h)?
Its TGI is 6.38 µM.

What about the “SI (TGI)” value ([2]; HOP-92, MG_MID_60/value) of the same molecule?
Its value is 2.92.

What about the GI50 ([2]; Homo sapiens, HOP-92, 48 h) of the same molecule?
The GI50 was 1.98 µM.

What about the CC50 ([2]; Homo sapiens, HOP-92, 48 h, read-out: LC50 (the source's name)) of the same molecule?
Its CC50 is 42 µM.

And the TGI ([3]; HCC -2998, 48 h)?
The TGI was 20.7 µM.

What about the “SI (TGI)” value ([3]; HCC -2998, MG_MID_60/value) of the same molecule?
The value was 0.90.

What about the GI50 ([3]; Homo sapiens, HCC -2998, 48 h) of the same molecule?
The GI50 was 6.36 µM.

And the CC50 ([3]; Homo sapiens, HCC -2998, 48 h, read-out: LC50 (the source's name))?
Its CC50 is 47.8 µM.

What about the GI50 ([4]; Homo sapiens, SNB-19, 48 h) of the same molecule?
The GI50 was 6.6 µM.

And the CC50 ([4]; Homo sapiens, SNB-19, 48 h, read-out: LC50 (the source's name))?
The CC50 was 52.2 µM.

And the TGI ([4]; SNB-19, 48 h)?
The TGI was 21.2 µM.

What about the “SI (TGI)” value ([4]; SNB-19, MG_MID_60/value) of the same molecule?
The value was 0.88.

What about the GI50 ([5]; Homo sapiens, U-251, U251, 48 h) of the same molecule?
Its GI50 is 3.27 µM.

What about the CC50 ([5]; Homo sapiens, U-251, U251, 48 h, read-out: LC50 (the source's name)) of the same molecule?
The CC50 was 54.7 µM.

What about the TGI ([5]; U251, 48 h) of the same molecule?
Its TGI is 15.7 µM.

What about the “SI (TGI)” value ([5]; U251, MG_MID_60/value) of the same molecule?
Its value is 1.18.

What about the Growth % ([5]; U-251, 10 μM, one dose, 48 h) of the same molecule?
Its Growth % is −79.79%.

And the “MG_MID TGI” value ([6]; CNS Cancer subpanel mean)?
Its value is 14.0 µM.

What about the “SI (MG_MID TGI)” value ([6]; CNS Cancer subpanel, MG_MID_60/value) of the same molecule?
Its value is 1.33.

And the GI50 ([6]; Homo sapiens, CNS Cancer subpanel mean, read-out: MG_MID GI50)?
Its GI50 is 3.24 µM.

What about the CC50 ([6]; Homo sapiens, CNS Cancer subpanel mean, read-out: MG_MID LC50) of the same molecule?
Its CC50 is 46.1 µM.

And the GI50 ([7]; Homo sapiens, Melanoma subpanel mean, read-out: MG_MID GI50)?
The GI50 was 3 µM.

What about the CC50 ([7]; Homo sapiens, Melanoma subpanel mean, read-out: MG_MID LC50) of the same molecule?
Its CC50 is 43.1 µM.

What about the “MG_MID TGI” value ([7]; Melanoma subpanel mean) of the same molecule?
Its value is 14.9 µM.

What about the “SI (MG_MID TGI)” value ([7]; Melanoma subpanel, MG_MID_60/value) of the same molecule?
The value was 1.25.

What about the GI50 ([8]; Homo sapiens, OVCAR-5, 48 h) of the same molecule?
Its GI50 is 4.58 µM.

What about the LC50 (concentration killing 50% of cells) ([8]; Homo sapiens, OVCAR-5, 48 h) of the same molecule?
The LC50 (concentration killing 50% of cells) was 44.1 µM.

What about the TGI ([8]; OVCAR-5, 48 h) of the same molecule?
The TGI was 17.7 µM.

And the “SI (TGI)” value ([8]; OVCAR-5, MG_MID_60/value)?
The value was 1.05.

And the GI50 ([9]; Homo sapiens, OVCAR-8, 48 h)?
Its GI50 is 10.6 µM.

And the LC50 (50% lethal concentration) ([9]; Homo sapiens, OVCAR-8, 48 h)?
Its LC50 (50% lethal concentration) is 70.1 µM.

What about the TGI ([9]; OVCAR-8, 48 h) of the same molecule?
Its TGI is 27.2 µM.

And the “SI (TGI)” value ([9]; OVCAR-8, MG_MID_60/value)?
Its value is 0.68.

What about the TGI ([10]; 48 h) of the same molecule?
Its TGI is 12.0 µM.

What about the GI50 ([10]; Homo sapiens, 48 h) of the same molecule?
Its GI50 is 3.2 µM.

And the CC50 ([10]; Homo sapiens, 48 h, read-out: LC50 (the source's name))?
The CC50 was 36.1 µM.

And the “SI (TGI)” value ([10]; MG_MID_60/value)?
Its value is 1.55.

What about the GI50 ([11]; Homo sapiens, UO-31, 48 h) of the same molecule?
The GI50 was 3.43 µM.

What about the CC50 ([11]; Homo sapiens, UO-31, 48 h, read-out: LC50 (the source's name)) of the same molecule?
The CC50 was 38.8 µM.

And the TGI ([11]; UO-31, 48 h)?
Its TGI is 13.7 µM.

What about the “SI (TGI)” value ([11]; UO-31, MG_MID_60/value) of the same molecule?
Its value is 1.36.

And the GI50 ([12]; Homo sapiens, Renal Cancer subpanel mean, read-out: MG_MID GI50)?
Its GI50 is 4.22 µM.

And the CC50 ([12]; Homo sapiens, Renal Cancer subpanel mean, read-out: MG_MID LC50)?
Its CC50 is 44.6 µM.

What about the “MG_MID TGI” value ([12]; Renal Cancer subpanel mean) of the same molecule?
Its value is 14.5 µM.

And the “SI (MG_MID TGI)” value ([12]; Renal Cancer subpanel, MG_MID_60/value)?
The value was 1.28.

What about the TGI ([13]; BT-549, 48 h) of the same molecule?
Its TGI is 10.7 µM.

What about the “SI (TGI)” value ([13]; BT-549, MG_MID_60/value) of the same molecule?
Its value is 1.74.

And the GI50 ([13]; Homo sapiens, BT-549, 48 h)?
Its GI50 is 0.81 µM.

And the CC50 ([13]; Homo sapiens, BT-549, 48 h, read-out: LC50 (the source's name))?
The CC50 was 39.2 µM.

From article PMC12190436, “5-Ene-2-arylaminothiazol-4(5H)-ones Induce Apoptosis in Breast Cancer Cells” (Cells, 2025)
